Laboratory results as given in ChEMBL document CHEMBL4304773, “Nitroimidazole-containing compounds and their antibacterial and antitubercular activities” (2019).
Converted amounts (≈) assume the structure as drawn.

Legend:
Assay type in all cases: functional
Escherichia coli [1] = experiment: Antibacterial activity against Escherichia coli
Staphylococcus aureus [2] = experiment: Antibacterial activity against Staphylococcus aureus
Pseudomonas aeruginosa [3] = experiment: Antibacterial activity against Pseudomonas aeruginosa
Candida albicans = experiment: Antifungal activity against Candida albicans
Bacillus subtilis = experiment: Antibacterial activity against Bacillus subtilis
Klebsiella pneumoniae = experiment: Antibacterial activity against Klebsiella pneumoniae after 24 hrs
Escherichia coli [4] = experiment: Antibacterial activity against Escherichia coli ATCC 25922 after 24 hrs; details: ATCC 25922, 24 h
Pseudomonas aeruginosa [5] = experiment: Antibacterial activity against Pseudomonas aeruginosa ATCC 27853 after 24 hrs; details: ATCC 27853, 24 h
Staphylococcus aureus [6] = experiment: Antibacterial activity against Staphylococcus aureus ATCC 25923 after 24 hrs; details: ATCC 25923, 24 h
Staphylococcus aureus [7] = experiment: Antibacterial activity against methicillin-resistant Staphylococcus aureus after 24 hrs
Staphylococcus aureus [8] = experiment: Antibacterial activity against Staphylococcus aureus ATCC 29213 after 24 hrs; details: ATCC 29213, 24 h
Enterococcus faecalis = experiment: Antibacterial activity against Enterococcus faecalis after 24 hrs
Pseudomonas aeruginosa [9] = experiment: Antibacterial activity against Pseudomonas aeruginosa after 24 hrs

| MIC (Escherichia coli [1]) [µg/mL] | MIC (Staphylococcus aureus [2]) | MIC (Pseudomonas aeruginosa [3]) [µg/mL] | MIC (Candida albicans) [µg/mL] | MIC (Bacillus subtilis) [µg/mL] | SMILES | MIC (Klebsiella pneumoniae) [µM] | MIC (Escherichia coli [4]) [µM] | MIC (Pseudomonas aeruginosa [5]) [µM] | MIC (Staphylococcus aureus [6]) [µM] | MIC (Staphylococcus aureus [7]) [µM] | MIC (Staphylococcus aureus [8]) [µM] | MIC (Enterococcus faecalis) [µM] | MIC (Pseudomonas aeruginosa [9]) [µM] |
| --- | --- | --- | --- | --- | --- | --- | --- | --- | --- | --- | --- | --- | --- |
| 0.25 to 0.5 (≈ 0.67 to 1.34 µM) | 0.25 to 0.5 µg/mL | 0.25 to 0.5 (≈ 0.67 to 1.34 µM) | 0.25 to 0.5 (≈ 0.67 to 1.34 µM) | 0.25 to 0.5 (≈ 0.67 to 1.34 µM) | COc1ccc(C2(C)OC(Cn3c([N+](=O)[O-])cnc3C)=NN2C(C)=O)cc1 (stereo unspecified) |  |  |  |  |  |  |  |  |
|  |  |  |  |  | CCCCCCCCCCOc1c(OC)cc(/C=C(\C#N)n2cc([N+](=O)[O-])nc2C)c2c1CN1CCc3cc4c(cc3C1C2)OCO4 (stereo unspecified) | 3 to 1020 (≈ 1.93 to 655 µg/mL) | 3 to 1020 (≈ 1.93 to 655 µg/mL) | 3 to 1020 (≈ 1.93 to 655 µg/mL) | 3 to 1020 (≈ 1.93 to 655 µg/mL) | 3 to 1020 (≈ 1.93 to 655 µg/mL) | 3 to 1020 (≈ 1.93 to 655 µg/mL) | 3 to 1020 (≈ 1.93 to 655 µg/mL) | 3 to 1020 (≈ 1.93 to 655 µg/mL) |
| 0.25 to 0.5 (≈ 0.696 to 1.39 µM) | 0.25 to 0.5 µg/mL | 0.25 to 0.5 (≈ 0.696 to 1.39 µM) | 0.25 to 0.5 (≈ 0.696 to 1.39 µM) | 0.25 to 0.5 (≈ 0.696 to 1.39 µM) | COc1ccc(C2OC(Cn3c([N+](=O)[O-])cnc3C)=NN2C(C)=O)cc1 (stereo unspecified) |  |  |  |  |  |  |  |  |
| 0.25 to 0.5 (≈ 0.67 to 1.34 µM) | 0.25 to 0.5 µg/mL | 0.25 to 0.5 (≈ 0.67 to 1.34 µM) | 0.25 to 0.5 (≈ 0.67 to 1.34 µM) | 0.25 to 0.5 (≈ 0.67 to 1.34 µM) | CC(=O)N1N=C(Cn2c([N+](=O)[O-])cnc2C)OC1c1ccc2c(c1)OCO2 (stereo unspecified) |  |  |  |  |  |  |  |  |
| 0.25 to 0.5 (≈ 0.687 to 1.37 µM) | 0.25 to 0.5 µg/mL | 0.25 to 0.5 (≈ 0.687 to 1.37 µM) | 0.25 to 0.5 (≈ 0.687 to 1.37 µM) | 0.25 to 0.5 (≈ 0.687 to 1.37 µM) | CC(=O)N1N=C(Cn2c([N+](=O)[O-])cnc2C)OC1c1ccc(Cl)cc1 (stereo unspecified) |  |  |  |  |  |  |  |  |
| 0.25 to 0.5 (≈ 1.26 to 2.52 µM) | 0.25 to 0.5 µg/mL | 0.25 to 0.5 (≈ 1.26 to 2.52 µM) | 0.25 to 0.5 (≈ 1.26 to 2.52 µM) | 0.25 to 0.5 (≈ 1.26 to 2.52 µM) | NC(=O)N/N=C/c1ccc([N+](=O)[O-])o1 [NITROFURAZONE] |  |  |  |  |  |  |  |  |
| 0.25 to 0.5 (≈ 0.668 to 1.34 µM) | 0.25 to 0.5 µg/mL | 0.25 to 0.5 (≈ 0.668 to 1.34 µM) | 0.25 to 0.5 (≈ 0.668 to 1.34 µM) | 0.25 to 0.5 (≈ 0.668 to 1.34 µM) | CC(=O)N1N=C(Cn2c([N+](=O)[O-])cnc2C)OC1c1ccc([N+](=O)[O-])cc1 (stereo unspecified) |  |  |  |  |  |  |  |  |
| 1.56 to 3.12 (≈ 3.22 to 6.44 µM) | 1.56 to 3.12 µg/mL | 1.56 to 3.12 (≈ 3.22 to 6.44 µM) |  | 1.56 to 3.12 (≈ 3.22 to 6.44 µM) | NC[C@H]1O[C@H](O[C@H]2[C@H](O)[C@@H](O[C@H]3O[C@H](CO)[C@@H](O)[C@H](N)[C@H]3O)[C@H](N)C[C@@H]2N)[C@H](O)[C@@H](O)[C@@H]1O [KANAMYCIN] |  |  |  |  |  |  |  |  |
| 0.25 to 0.5 (≈ 0.644 to 1.29 µM) | 0.25 to 0.5 µg/mL | 0.25 to 0.5 (≈ 0.644 to 1.29 µM) | 0.25 to 0.5 (≈ 0.644 to 1.29 µM) | 0.25 to 0.5 (≈ 0.644 to 1.29 µM) | CC(=O)N1N=C(Cn2c([N+](=O)[O-])cnc2C)OC1(C)c1ccc([N+](=O)[O-])cc1 (stereo unspecified) |  |  |  |  |  |  |  |  |
| 0.25 to 0.5 (≈ 0.728 to 1.46 µM) | 0.25 to 0.5 µg/mL | 0.25 to 0.5 (≈ 0.728 to 1.46 µM) | 0.25 to 0.5 (≈ 0.728 to 1.46 µM) | 0.25 to 0.5 (≈ 0.728 to 1.46 µM) | CC(=O)N1N=C(Cn2c([N+](=O)[O-])cnc2C)OC1c1ccc(C)cc1 (stereo unspecified) |  |  |  |  |  |  |  |  |
|  |  |  |  |  | C=CCOc1c(OC)cc(/C=C(\C#N)n2cc([N+](=O)[O-])nc2C)c2c1CN1CCc3cc4c(cc3C1C2)OCO4 (stereo unspecified) | 3 to 1020 (≈ 1.62 to 553 µg/mL) | 3 to 1020 (≈ 1.62 to 553 µg/mL) | 3 to 1020 (≈ 1.62 to 553 µg/mL) | 3 to 1020 (≈ 1.62 to 553 µg/mL) | 3 to 1020 (≈ 1.62 to 553 µg/mL) | 3 to 1020 (≈ 1.62 to 553 µg/mL) | 3 to 1020 (≈ 1.62 to 553 µg/mL) | 3 to 1020 (≈ 1.62 to 553 µg/mL) |
| 0.25 to 0.5 (≈ 0.728 to 1.46 µM) | 0.25 to 0.5 µg/mL | 0.25 to 0.5 (≈ 0.728 to 1.46 µM) | 0.25 to 0.5 (≈ 0.728 to 1.46 µM) | 0.25 to 0.5 (≈ 0.728 to 1.46 µM) | CC(=O)N1N=C(Cn2c([N+](=O)[O-])cnc2C)OC1(C)c1ccccc1 (stereo unspecified) |  |  |  |  |  |  |  |  |
|  | 184 µM |  |  |  | Cc1nc([N+](=O)[O-])cn1Cc1nn(CN2CCNCC2)c(=S)o1 |  |  |  |  |  |  |  |  |
|  |  |  |  |  | COc1cc(/C=C(\C#N)n2cc([N+](=O)[O-])nc2C)c2c(c1OCC#N)CN1CCc3cc4c(cc3C1C2)OCO4 (stereo unspecified) | 3 to 1020 (≈ 1.62 to 552 µg/mL) | 3 to 1020 (≈ 1.62 to 552 µg/mL) | 3 to 1020 (≈ 1.62 to 552 µg/mL) | 3 to 1020 (≈ 1.62 to 552 µg/mL) | 3 to 1020 (≈ 1.62 to 552 µg/mL) | 3 to 1020 (≈ 1.62 to 552 µg/mL) | 3 to 1020 (≈ 1.62 to 552 µg/mL) | 3 to 1020 (≈ 1.62 to 552 µg/mL) |
|  |  |  |  |  | COc1cc(/C=C(\C#N)n2cc([N+](=O)[O-])nc2C)c2c(c1OCc1ccc(Cl)cc1Cl)CN1CCc3cc4c(cc3C1C2)OCO4 (stereo unspecified) | 3 to 1020 (≈ 1.98 to 674 µg/mL) | 3 to 1020 (≈ 1.98 to 674 µg/mL) | 3 to 1020 (≈ 1.98 to 674 µg/mL) | 3 to 1020 (≈ 1.98 to 674 µg/mL) | 3 to 1020 (≈ 1.98 to 674 µg/mL) | 3 to 1020 (≈ 1.98 to 674 µg/mL) | 3 to 1020 (≈ 1.98 to 674 µg/mL) | 3 to 1020 (≈ 1.98 to 674 µg/mL) |
|  |  |  |  |  | CCCCCCOc1c(OC)cc(/C=C(\C#N)n2cc([N+](=O)[O-])nc2C)c2c1CN1CCc3cc4c(cc3C1C2)OCO4 (stereo unspecified) | 3 to 1020 (≈ 1.76 to 598 µg/mL) | 3 to 1020 (≈ 1.76 to 598 µg/mL) | 3 to 1020 (≈ 1.76 to 598 µg/mL) | 3 to 1020 (≈ 1.76 to 598 µg/mL) | 3 to 1020 (≈ 1.76 to 598 µg/mL) | 3 to 1020 (≈ 1.76 to 598 µg/mL) | 3 to 1020 (≈ 1.76 to 598 µg/mL) | 3 to 1020 (≈ 1.76 to 598 µg/mL) |
|  |  |  |  |  | COc1cc(/C=C(\C#N)n2cc([N+](=O)[O-])nc2C)c2c(c1OCc1cccc(Cl)c1)CN1CCc3cc4c(cc3C1C2)OCO4 (stereo unspecified) | 3 to 1020 (≈ 1.88 to 639 µg/mL) | 3 to 1020 (≈ 1.88 to 639 µg/mL) | 3 to 1020 (≈ 1.88 to 639 µg/mL) | 3 to 1020 (≈ 1.88 to 639 µg/mL) | 3 to 1020 (≈ 1.88 to 639 µg/mL) | 3 to 1020 (≈ 1.88 to 639 µg/mL) | 3 to 1020 (≈ 1.88 to 639 µg/mL) | 3 to 1020 (≈ 1.88 to 639 µg/mL) |
|  |  |  |  |  | CCCCCCCCOc1c(OC)cc(/C=C(\C#N)n2cc([N+](=O)[O-])nc2C)c2c1CN1CCc3cc4c(cc3C1C2)OCO4 (stereo unspecified) | 3 to 1020 (≈ 1.84 to 627 µg/mL) | 3 to 1020 (≈ 1.84 to 627 µg/mL) | 3 to 1020 (≈ 1.84 to 627 µg/mL) | 3 to 1020 (≈ 1.84 to 627 µg/mL) | 3 to 1020 (≈ 1.84 to 627 µg/mL) | 3 to 1020 (≈ 1.84 to 627 µg/mL) | 3 to 1020 (≈ 1.84 to 627 µg/mL) | 3 to 1020 (≈ 1.84 to 627 µg/mL) |
